Reference: paper PMC9501232, “Novel 4-Azapregnene Derivatives as Potential Anticancer Agents: Synthesis, Antiproliferative Activity and Molecular Docking Studies” (Molecules, 2022)

Assays:
[1] = tested on: LNCaP cells; test: MTT cell proliferation assay, LNCaP; assay type: cell-based, human; settings: 72 h; for MTT screening, cell proliferation: 30 µM, average ± SD; for IC50: Homo sapiens, MTT
Method: (§1) Cell lines, namely LNCaP, PC-3, T47-D and NHDF were obtained from American Type Culture Collection (ATCC; Manassas, VA, USA) and cultured in 75 cm^2 culture flasks at 37 °C in a humidified air incubator with 5% CO2. LNCaP, PC-3 and T47-D cells, which were used in passages 20th to 27th, 25th to 29th and 10th to 15th, respectively, were cultured in RPMI 1640 medium (Sigma-Aldrich, Inc., St. Louis, MO, USA) with 10% fetal bovine serum (FBS; Sigma-Aldrich, Inc. St. Louis, MO, USA) and 1% of the antibiotic mixture of 10,000 IU/mL penicillin G and […] of streptomycin (Sp, Sigma-Aldrich, Inc. St. Louis, MO, USA). Finally, NHDF cells (Normal Human Dermal Fibroblasts) were cultured in RPMI 1640 medium supplemented with 10% FBS, 2 mM L-glutamine, 10 mM HEPES, 1 mM sodium pyruvate and 1% of an antibiotic/antimycotic mixture (10,000 U/mL penicillin G, 100 mg/mL streptomycin and 25 µg/mL amphotericin B) (Ab; Sigma-Aldrich, Inc. St. Louis, MO, USA), and these cells were used in passages 10 to 12. For all cell types, the medium was renewed every 2–3 days until cells reach nearly the confluence state. Then, they were detached gently by trypsinization (trypsin-EDTA solution: 0.125 g/L of trypsin and 0.02 g/L of EDTA).
(§2) All the stock solutions were prepared by dissolving compounds in dimethyl sulfoxide (DMSO; Sigma-Aldrich, Inc., St. Louis, MO, USA) at 10 mM and stored at 4 °C. From these solutions, the several diluted compounds solutions in different concentrations were freshly prepared in a complete culture medium before each experiment.
(§3) As previously referred, cells were trypsinized after reaching a near confluence state and counted by the trypan blue exclusion assay in a Neubauer chamber. Then, 100 µL of cell suspension/well with an initial density of 2 × 10^4 cells/mL were seeded in 96-well culture plates (Nunc, Apogent, Denmark) and left to adhere for 48 h. After cells adherence, the medium was replaced by the distinct solutions of the compounds in the study (30 µM for preliminary studies and 0.01, 0.1, 1, 10, 50 and 100 µM for concentration–response studies) in the appropriate medium for approximately 72 h. 5-FU and finasteride were used as positive controls and untreated cells were used as the negative control. Each experiment was performed in quadruplicate and independently performed at least two times. The in vitro antiproliferative effects were evaluated by the MTT assay (Sigma-Aldrich, Inc. St. Louis, USA). After the incubation period, the medium was removed and 100 µL of phosphate buffer saline (NaCl 137 mM, KCl 2.7 mM, Na2HPO4 10 mM and KH2PO4 1.8 mM in deionized water and pH adjusted to 7.4) were used to wash the cells. Then, 100 µL of the MTT solution (5 mg/mL) was prepared in the appropriate serum-free medium and was added to each well, followed by incubation for 4 h at 37 °C. Hereafter, the MTT containing medium was removed and the formazan crystals were dissolved in DMSO. Then the absorbance was measured at 570 nm using a microplate spectrophotometer BIO-RAD xMarkTM. Cell viability values were expressed as percentages relative to the absorbance determined in the cells used as negative controls.
(§4) The data are expressed as a mean ± standard deviation (SD) and differences between groups were considered statistically significant when p < 0.05. The IC50 values were determined through sigmoidal fitting analysis with variable slope and considering a 95% confidence level. All data shown are representative of at least two independent experiments.

[2] = tested on: PC-3 cells; test: MTT cell proliferation assay, PC-3; assay type: cell-based, human; settings: for MTT screening, cell proliferation: PC-3, 30 µM, 72 h, average ± SD; for IC50: Homo sapiens, PC-3, 72 h, MTT
Method: as §1, §2, §3, §4

[3] = tested on: T47-D cells; test: MTT cell proliferation assay, T47-D; assay type: cell-based, human; settings: 72 h; for MTT screening, cell proliferation: 30 µM, average ± SD; for IC50: Homo sapiens, T47D, MTT
Method: as §1, §2, §3, §4

[4] = tested on: NHDF cells (Normal Human Dermal Fibroblasts); test: MTT cell proliferation assay, NHDF; assay type: cell-based; settings: 72 h; for MTT screening, cell proliferation: 30 µM, average ± SD; for IC50: Homo sapiens, MTT
Method: as §1, §2, §3, §4

[5] = tested on: T47-D cells; test: Cell nuclear morphology and distribution analysis with ImageJ; assay type: cell-based, human; settings: 20 µM, 48 and 72 h
Source text: The nuclear measurements were achieved by converting 16-bit photomicrographs of Hoechst 3342-stained nuclei, in different conditions, into 8-bit images and then these images were autothresholded to binary photos using the default method “Make binary” function of ImageJ v 1.49. Cell nuclei that are touching were separated and fragments were discarded based on the area through the “Analyze Particle” function. This function also provides several information pretended as nuclear area, circumference and form factor [33]. In addition, the “Nearest Neighbor Distance” was determined. This function allows measuring the distance between each cell nucleus and the nearest ones.

Row | Molecule | MTT screening, cell proliferation [1] | MTT screening, cell proliferation [2] | MTT screening, cell proliferation [3] | MTT screening, cell proliferation [4] | melting point [°C] | IC50 [1] [µM] | IC50 [2] [µM] | IC50 [3] [µM] | IC50 [4] [µM] | Nearest neighbor distance (NND) of cell nuclei [5]
1 | 4-Azapregn-4-ene-3,20-dione [Compound 2] | 58.3 ± 13.6 percentage of negative control | 96.7 ± 9.3 percentage of negative control | 137.0 ± 18.0 percentage of negative control | 106.1 ± 6.0 percentage of negative control |  |  |  |  |  | 
2 | CC(=O)[C@H]1CCC2C3CCC(=O)[C@](C)(CCC(=O)O)C3CC[C@@]21C (some centres unmarked) [Compound 1] | 96.4 ± 16.1 percentage of negative control | 102.1 ± 5.2 percentage of negative control | 130.8 ± 20.8 percentage of negative control | 100.0 ± 6.0 percentage of negative control | 168 to 169 |  |  |  |  | 
3 | C[C@]12CC[C@H]3[C@@H](CC=C4NC(=O)CC[C@@]43C)[C@@H]1CC[C@@H]2C(=O)/C=C/c1ccccc1 [Compound 3a, 21E-(Phenylmethylidene)-4-azapregn-5-ene-3,20-dione] | 6.5 ± 5.3 percentage of negative control | 1.4 ± 1.0 percentage of negative control | 6.5 ± 5.4 percentage of negative control | 25.1 ± 7.4 percentage of negative control |  | 27.5 | 12.6 | 16.9 | 64 | 
4 | Cc1ccc(/C=C/C(=O)[C@H]2CC[C@H]3[C@@H]4CC=C5NC(=O)CC[C@]5(C)[C@H]4CC[C@]23C)cc1 [Compound 3b, 21E-[(4-Methylphenyl)methylidene]-4-azapregn-5-ene-3,20-dione] | 62.7 ± 9.0 percentage of negative control | 25.9 ± 3.8 percentage of negative control | 45.0 ± 11.6 percentage of negative control | 83.0 ± 3.6 percentage of negative control | 191 to 193 |  | 25.9 | 45 |  | 
5 | C[C@]12CC[C@H]3[C@@H](CC=C4NC(=O)CC[C@@]43C)[C@@H]1CC[C@@H]2C(=O)/C=C/c1ccc([N+](=O)[O-])cc1 [Compound 3c, 21E-[(4-Nitrophenyl)methylidene]-4-azapregn-5-ene-3,20-dione] | 5.2 ± 2.6 percentage of negative control | 0.7 ± 0.5 percentage of negative control | 6.7 ± 4.6 percentage of negative control | 20.3 ± 2.8 percentage of negative control |  | 16.3 | 3.29 | 6.56 | 6.94 | 
6 | COc1ccc(/C=C/C(=O)[C@H]2CC[C@H]3[C@@H]4CC=C5NC(=O)CC[C@]5(C)[C@H]4CC[C@]23C)cc1 [Compound 3d, 21E-[(4-Methoxyphenyl)methylidene]-4-azapregn-5-ene-3,20-dione] | 88.0 ± 15.5 percentage of negative control | 58.2 ± 6.0 percentage of negative control | 73.9 ± 14.6 percentage of negative control | 52.4 ± 2.8 percentage of negative control | 280 to 282 |  |  |  |  | 
7 | C[C@]12CC[C@H]3[C@@H](CC=C4NC(=O)CC[C@@]43C)[C@@H]1CC[C@@H]2C(=O)/C=C/c1ccco1 [Compound 3e, 21E-[(Furan-2-yl)methylidene]-4-azapregn-5-ene-3,20-dione] | 85.3 ± 6.7 percentage of negative control | 82.7 ± 6.5 percentage of negative control | 92.6 ± 7.4 percentage of negative control | 111.6 ± 13.9 percentage of negative control | 260 to 261 |  |  |  |  | 
8 | Cc1ccc(/C=C/C(=O)[C@H]2CC[C@H]3[C@@H]4CC=C5NC(=O)CC[C@]5(C)[C@H]4CC[C@]23C)o1 [Compound 3f, 21E-[(5-Methylfuran-2-yl)methylidene]-4-azapregn-5-ene-3,20-dione] | 88.9 ± 17.7 percentage of negative control | 108.1 ± 7.8 percentage of negative control | 104.3 ± 11.3 percentage of negative control | 89.7 ± 9.7 percentage of negative control | 200 to 203 |  |  |  |  | 
9 | O=c1[nH]cc(F)c(=O)[nH]1 [Compound 5-FU, 5-fluorouracil, reference compound] | 18.6 ± 2.6 percentage of negative control | 10.8 ± 3.1 percentage of negative control | 42.3 ± 6.4 percentage of negative control | 33.6 ± 8.2 percentage of negative control |  | 1.5 | 3.3 | 0.7 | 29.4 | different distances
10 | C[C@]12CCC(=O)C[C@@H]1CC[C@@H]1[C@@H]2CC[C@]2(C)[C@@H](O)CC[C@@H]12 [DHT, 5α-dihydrotestosterone, reference compound] | 138.9 ± 3.9 percentage of negative control | 93.1 ± 4.9 percentage of negative control | 90.7 ± 9.4 percentage of negative control | 100.5 ± 7.4 percentage of negative control |  |  |  |  |  | 
11 | CC(=O)[C@H]1CC[C@H]2[C@@H]3CCC4=CC(=O)CC[C@]4(C)[C@H]3CC[C@]12C [Progesterone, reference compound] | 64.3 ± 16.1 percentage of negative control | 42.9 ± 5.4 percentage of negative control | 62.9 ± 6.8 percentage of negative control | 96.6 ± 14.3 percentage of negative control |  |  |  |  |  | 
12 | C[C@]12CC[C@H]3[C@@H](CCC4=CC(=O)CC[C@@]43C)[C@@H]1CC[C@@H]2O [Testosterone, reference compound] | 99.2 ± 4.2 percentage of negative control | 89.5 ± 9.0 percentage of negative control | 72.0 ± 4.0 percentage of negative control | 94.2 ± 7.3 percentage of negative control |  |  |  |  |  | 
